Biological target: T1, Hepatic Lipase (Homo sapiens, UniProt P11150)
T1 sequence (P11150 23-499): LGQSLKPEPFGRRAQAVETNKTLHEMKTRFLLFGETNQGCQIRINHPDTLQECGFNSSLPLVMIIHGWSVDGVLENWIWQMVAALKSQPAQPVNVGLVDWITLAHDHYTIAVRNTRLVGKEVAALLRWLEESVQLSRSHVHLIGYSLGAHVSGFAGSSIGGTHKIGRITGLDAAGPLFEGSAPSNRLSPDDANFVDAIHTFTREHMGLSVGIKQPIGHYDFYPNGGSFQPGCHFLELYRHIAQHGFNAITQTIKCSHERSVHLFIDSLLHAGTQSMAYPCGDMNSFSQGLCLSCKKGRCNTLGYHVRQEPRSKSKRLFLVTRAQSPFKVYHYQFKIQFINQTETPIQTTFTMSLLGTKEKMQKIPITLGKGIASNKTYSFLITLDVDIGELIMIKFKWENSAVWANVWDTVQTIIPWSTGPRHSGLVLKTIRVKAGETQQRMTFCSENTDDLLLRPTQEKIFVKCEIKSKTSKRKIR
Assay: Hydrolysis of thioPEG and thioPC substrates by Hepatic Lipase (papain thiol detection system, FIG. 1)
Type: biochemical
Conditions: 0.5 mM thioPEG (enzyme diluted 100-5000 fold), 1.0 mM thioPC (enzyme diluted 1-64 fold)
Procedure: Hepatic Lipase enzyme was diluted 1, 32 or 64 fold for thioPC and 100, 500, 1000 or 5000 fold for thioPEG. Hydrolysis was measured by the papain thiol detection system (discussed below). […] Data curve I represents 0.5 mM thioPEG and Data Curve II represents 1.0 mM thioPC.
The invention also has the additional advantage of requiring fewer incubation periods in order to obtain detectable color. For example as shown in Scheme D below, thioPC substrate requires a reaction coupled with an enzymatic detection process for the liberated thiol-lysophospholipid which has two additional incubation periods in the papain system. L-BAPNA is an abbreviation for N-benzoyl-L-arginine, p-nitroanilide, hydrochloride.
In Scheme E, below, thioPC is combined with hepatic lipase and incubated for about 30 minutes yielding a free-thiol lysophospholipid. […] Activated papain-SH enzyme is combined with a coloring agent, L-BAPNA, and incubated for 60 minutes yielding a colored product, p-nitro aniline. ThioPEG substrate is an improvement since it requires only a single incubation period to yield detectable color. [drawing 12]

| hydrolysis of substrate by Hepatic Lipase (Optical Density at 410 nM vs Relative Enzyme Concentration) | Compound |
| --- | --- |
| much more slowly | didecanoyl-thio-phosphatidylcholine [thioPC] |
| hydrolyzed much faster than thioPC | CCCCCCCCCC(=O)O[C@@H](COP(=O)(O)OCCO)CSC(=O)CCCCCCCCC [thioPEG, (1-Decanoylthio-1-deoxy-2-decanoyl-sn-glycero-3-phosphoryl) ethylene glycol] |
